As usually defined, the IC50 is the point on the concentration scale where inhibition reaches its midpoint.

This assay addresses T1, KDM4B (Homo sapiens, UniProt O94953).
T1 sequence (O94953 1-500): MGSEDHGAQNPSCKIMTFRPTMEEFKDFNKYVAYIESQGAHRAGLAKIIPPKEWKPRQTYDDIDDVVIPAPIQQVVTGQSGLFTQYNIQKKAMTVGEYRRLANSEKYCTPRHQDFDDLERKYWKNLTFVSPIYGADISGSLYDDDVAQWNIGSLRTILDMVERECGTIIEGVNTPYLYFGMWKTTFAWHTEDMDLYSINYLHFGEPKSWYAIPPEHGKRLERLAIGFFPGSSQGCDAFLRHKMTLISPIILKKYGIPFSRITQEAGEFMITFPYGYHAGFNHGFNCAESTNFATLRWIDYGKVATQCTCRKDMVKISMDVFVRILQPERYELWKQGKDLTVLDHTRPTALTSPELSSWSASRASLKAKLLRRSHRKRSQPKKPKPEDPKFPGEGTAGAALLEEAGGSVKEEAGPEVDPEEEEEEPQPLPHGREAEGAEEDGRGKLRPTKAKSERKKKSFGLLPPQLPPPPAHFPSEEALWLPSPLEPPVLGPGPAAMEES
Nature of the assay: 1H-15N TROSY-HSQC NMR shifts. In kind it is biochemical.

Regarding `O=C(NCCCc1ccccc1)c1cccc(-c2cc(O)c3ncccc3c2)c1` [B3, NCGC00244536], the IC50 was roughly 10 nM.

These data come from article PMC4578295 (Chemistry & biology, 2015).
